Laboratory results as given in ChEMBL document CHEMBL4651402, “Screening of ~5500 FDA-approved drugs and clinical candidates for anti-SARS-CoV-2 activity” (2021).
pIC50: −log10 of the molar value.

System: SARS-CoV-2
Assay: microbe, parasite or virus in culture
Settings: Severe acute respiratory syndrome coronavirus 2, Vero C1008, 48 h; for IC50: read-out: pIC50 (converted)

| SMILES | pIC50 | IC50 [µM] |
| --- | --- | --- |
| CCN(CC)C(=O)N[C@H]1C=C2c3cccc4[nH]c(Br)c(c34)C[C@H]2N(C)C1 [BROMERGURIDE] | < 4.70 | > 20 |
| CC(C)(C)NC[C@H](O)COc1nsnc1N1CCOCC1 [TIMOLOL] | < 4.70 | > 20 |
| COC(=O)[C@@H]1[C@H]2C[C@H]3c4[nH]c5ccccc5c4CCN3C[C@@H]2CC[C@@H]1O [YOHIMBINE] | < 4.70 | > 20 |
| C#CCN[C@@H]1CCc2ccccc21 [RASAGILINE] | < 4.70 | > 20 |
| CC(=O)N1CCC(=C2c3ccc(Cl)cc3CCc3cccnc32)CC1 [SCH-37370] | < 4.70 | > 20 |
| O=C(COc1ccc(Cl)cc1)N1CCN(Cc2ccc3c(c2)OCO3)CC1 [FIPEXIDE] | < 4.70 | > 20 |
| CNCC[C@@H](Oc1ccccc1C)c1ccccc1 [ATOMOXETINE] | < 4.70 | > 20 |
| CN(C)S(=O)(=O)c1ccc2c(c1)N(C1CN3CCC1CC3)c1ccccc1S2 (centres undefined) [QUISULTAZINE] | < 4.70 | > 20 |
| Oc1c(Cc2ccccc2)ccc2ccccc12 | < 4.70 | > 20 |
| c1cc2c(cc1[C@H]1OC[C@H]3[C@@H]1CO[C@H]3c1ccc3c(c1)OCO3)OCO2 [ASARININ] | < 4.70 | > 20 |
| c1ccc2c(c1)CN1CCCC1=N2 | < 4.70 | > 20 |
| CS(=O)(=O)OC[C@H](O)[C@@H](O)COS(C)(=O)=O [TREOSULFAN] | < 4.70 | > 20 |
| CSCC[C@H](NC(=O)[C@H](Cc1c[nH]c2ccccc12)NC(=O)CCNC(=O)OC(C)(C)C)C(=O)N[C@@H](CC(=O)O)C(=O)N[C@@H](Cc1ccccc1)C(N)=O [PENTAGASTRIN] | < 4.70 | > 20 |
| O=[N+]([O-])/N=C1\NCCN1Cc1ccc(Cl)nc1 [IMIDACLOPRID] | < 4.70 | > 20 |
| CC[C@H](C)C[C@H](C)CCCCCCCCC(=O)N[C@H]1C[C@@H](O)[C@H](NCCN)NC(=O)[C@@H]2[C@@H](O)CCN2C(=O)[C@H]([C@H](O)CCN)NC(=O)C([C@H](O)[C@@H](O)c2ccc(O)cc2)NC(=O)[C@@H]2C[C@@H](O)CN2C(=O)C([C@@H](C)O)NC1=O (some centres undefined) | < 4.70 | > 20 |
| CCN(CC)C(=O)C1CN2CCc3cc(OC)c(OC)cc3C2CC1OC(C)=O (centres undefined) [BENZQUINAMIDE] | < 4.70 | > 20 |
| CCN1C(=CC=CC=Cc2sc3ccccc3[n+]2CC)Sc2ccccc21 [DITHIAZANINE] | < 4.70 | > 20 |
| CCOC(=O)COc1ccc2c(C)c(CCN(CC)CC)c(=O)oc2c1 [CHROMONAR] | < 4.70 | > 20 |
| N=C(N)NS(=O)(=O)c1ccc(N)cc1 [SULFAGUANIDINE] | < 4.70 | > 20 |
| CC(Oc1c(Cl)cccc1Cl)C1=NCCN1 (centres undefined) [LOFEXIDINE] | < 4.70 | > 20 |

| SMILES | pIC50 | IC50 [µM] |
| --- | --- | --- |
| COCc1c(-c2ccc(NC(=O)Nc3cc(C(F)(F)F)ccc3F)c(F)c2)c2c(N)ncnn2c1CN1CCOCC1 | < 4.70 | > 20 |
| CNC(=O)c1cccc(NCC(=O)NCCc2ccc(OC)c(OC)c2)c1 [ECABAPIDE] | < 4.70 | > 20 |
| Nc1ncnc2c1ncn2C1CC(O)C(CO)O1 (centres undefined) | < 4.70 | > 20 |
| CC1(C)CN2C(=O)c3[nH]cnc3N(Cc3ccc(Cl)cc3)C2=N1 | < 4.70 | > 20 |
| CC[C@@H](O)C(C[C@@H](C)N(C)C)(c1ccccc1)c1ccccc1 [ALPHAMETHADOL] | < 4.70 | > 20 |
| NCCCCCCN | < 4.70 | > 20 |
| CCCCCCCCCC1(C)OCC(COC(N)=O)O1 (centres undefined) [DIOXAMATE] | < 4.70 | > 20 |
| COc1ccc2[nH]cc(CCN(C)C)c2c1 [MEBUFOTENIN] | < 4.70 | > 20 |
| CC[C@@H](c1cccc(O)c1)[C@@H](C)CN(C)C [TAPENTADOL] | < 4.70 | > 20 |
| CC(C)(CNC(N)=O)NCC(O)COC(=O)c1ccccc1F (centres undefined) [FLESTOLOL] | < 4.70 | > 20 |
| CCC(=O)OC1(c2ccccc2)CCN(C)C1C (centres undefined) [PRODILIDINE] | < 4.70 | > 20 |
| CC(C)[C@H](N)C(=O)N1CCC[C@H]1B(O)O [TALABOSTAT] | < 4.70 | > 20 |
| CC(=O)O[C@@H]1CC2(C)C(C(C)=O)CCC2C2CCC3=CC(=O)CCC3(C)C21 (some centres undefined) | < 4.70 | > 20 |
| CN(Cc1cnc2nc(N)nc(N)c2n1)c1ccc(C(=O)NC(CCC(=O)O)C(=O)O)cc1 (centres undefined) | < 4.70 | > 20 |
| CCN1CC(NC(=O)c2cc(Cl)c(N)cc2OC)CN1CC [DAZOPRIDE] | < 4.70 | > 20 |
| C=CCSCC1Nc2cc(Cl)c(S(N)(=O)=O)cc2S(=O)(=O)N1 (centres undefined) [ALTHIAZIDE] | < 4.70 | > 20 |
| C[C@H]1C(=O)O[C@@H]2CCN3CC=C(COC(=O)[C@](C)(O)[C@]1(C)O)[C@H]23 [MONOCROTALINE] | < 4.70 | > 20 |
| O=C(Cc1ccc(-c2ccc(OCCN3CCOCC3)cc2)cn1)NCc1ccccc1 [TIRBANIBULIN] | < 4.70 | > 20 |
| O=C(O)Cc1cccc(-c2cc(CCCCCCc3ccc(O[C@H]4O[C@H](CO)[C@@H](O)[C@H](O)[C@@H]4O)c(-c4cccc(CC(=O)O)c4)c3)ccc2O[C@H]2O[C@H](CO)[C@@H](O)[C@H](O)[C@@H]2O)c1 [BIMOSIAMOSE] | < 4.70 | > 20 |
| CC[C@@H]1C2C[C@H](O)CC[C@]2(C)[C@H]2CC[C@]3(C)[C@@H]([C@H](C)CCC(=O)O)CC[C@H]3[C@@H]2[C@@H]1O (some centres undefined) | < 4.70 | > 20 |
| CC(=O)c1ccc2c(c1)C(=O)C1(CC1)O2 [SPIZOFURONE] | < 4.70 | > 20 |

| SMILES | pIC50 | IC50 [µM] |
| --- | --- | --- |
| CC1(N)CCN(c2cccnc2NC(=O)c2nc(-c3ncccc3C(F)(F)F)cnc2N)CC1 [DAROVASERTIB] | < 4.70 | > 20 |
| CC(C)[C@@H](N)C(=O)O | < 4.70 | > 20 |
| COc1ccc2[nH]c([S+]([O-])Cc3ncc(C)c(OC)c3C)nc2n1 (centres undefined) [TENATOPRAZOLE] | < 4.70 | > 20 |
| OCc1cc2c(cn1)[nH]c1ccccc12 | < 4.70 | > 20 |
| COc1cc(NS(=O)(=O)c2ccc(N)cc2)ncn1 [SULFAMONOMETHOXINE] | < 4.70 | > 20 |
| COC(=O)C1=COC(C)C2CN3CCC4(C(=O)Nc5ccccc54)C3CC12 (centres undefined) | < 4.70 | > 20 |
| Cc1cc(-c2nc(CN3CCNCC3)no2)cc2c1C(=O)N(Cc1ccc(OC(F)(F)F)cc1)C2 | < 4.70 | > 20 |
| O=S(=O)(c1ccccc1)c1cnc2c(N3CCNCC3)cccc2c1 [INTEPIRDINE] | < 4.70 | > 20 |
| Clc1cc(Cl)c(OCC#CI)cc1Cl [HALOPROGIN] | < 4.70 | > 20 |
| O=C(O)/C=C/c1ccc(Cn2ccnc2)cc1 [OZAGREL] | < 4.70 | > 20 |
| O=C(O)c1nn(-c2ccc(S(=O)(=O)O)cc2)c(O)c1/N=N/c1ccc(S(=O)(=O)O)cc1 | < 4.70 | > 20 |
| CNC(=O)c1cc(Oc2ccc3nc(N[C@@H]4CCCC[C@H]4O)sc3c2)ccn1 [SOTULETINIB] | < 4.70 | > 20 |
| CCN(CC)CCNC(=O)c1cc(Cl)c(N)cc1OC(C)C(C)=O (centres undefined) [BATANOPRIDE] | < 4.70 | > 20 |
| c1ccc2c(Cc3c[nH]c4ccccc34)c[nH]c2c1 [ARUNDINE] | < 4.70 | > 20 |
| C[C@]12CCC(=O)C=C1CC[C@@H]1[C@@H]2CC[C@@]2(C)[C@H]1CC[C@]2(O)C(=O)CO [CORTODOXONE] | < 4.70 | > 20 |
| COC(=O)C1=COC(O[C@H]2OC(CO)[C@H](O)C(O)C2O)[C@H]2C1C(=O)C[C@@H]2C (some centres undefined) | < 4.70 | > 20 |
| C[C@@H]([C@@H](O)c1ccc(O)cc1)N1CCC(O)(c2ccccc2)CC1 [TRAXOPRODIL] | < 4.70 | > 20 |
| C[C@@H]1N=C(N)O[C@@H]1c1ccccc1 (relative stereo) | < 4.70 | > 20 |
| CC(C)C[C@H](NC(=O)[C@@H](O)[C@H](N)Cc1ccccc1)C(=O)O [UBENIMEX] | < 4.70 | > 20 |
| CO/N=C/C1=CCCN(C)C1 [MILAMELINE] | < 4.70 | > 20 |
